Measured values from US11529332B2 (priority 2017, dated 2022).
pIC50: −log10 of the molar value. Like-named read-outs stand apart in the source and are kept apart here.

Key:
MYXV [1] = experiment: MYXV-GFP infection rate in RK13 cells (high content microscopy); settings: for Inhibition of MYXV infection rate (in words): RK13 cells; for pIC50: MYXV in RK13 cells
Experimental: RK13 (rabbit epitelial kidney) cells were used for MYXV infection assay.
Cells were grown in 200 μL Dulbecco's Modified Eagle's medium (DMEM) without phenol red (Sigma-Aldrich), 10% SVF, Pen-strep, 1× sodium pyruvate, 1× Glutamax.
RK13 cells at MOI 0.5 48 h post-infection (PI) are fixed with Formalin 10 min at room temperature. Wash with 200 μL PBS and 100 μL PBS/Hoechst 33342 (1/1000) per well. 96 well plates are kept at 4° C. in the dark until data acquisition. Image acquisition and analysis for high content quantification is performed on a Thermo Cellomics Arrayscan VTI microscope using a modified compartmental analysis algorithm.
RK13 cells for the toxicity study and RK13 cells at MOI 0.01 6 days PI are fixed and image acquisition and analysis are performed as previously described.
On 48 h and 6d post-infection, data acquisition was done by high content microscopy to calculate infection level according to compound concentration.

MYXV [2] = experiment: Lysis plaque analysis in RK13 infected with MYXV; type: cell-based, Myxoma virus; settings: 6d PI
Experimental: Lysis plaque analysis was carried out in RK13 infected with MYXV 6d PI. Lysis plaques area and number of lysis plaques were assessed directly on microscope pictures (FIG. 4).

[3] = read-out: IC50 (48 h PI), MOI 0.5, 48 h post-infection
[4] = read-out: IC50 (6 d PI), MOI 0.01, 6 days post-infection

O=[N+]([O-])c1ccc(-c2c3nc(c4ccc([nH]4)c(-c4ccc([N+](=O)[O-])cc4)c4ccc([nH]4)c(-c4ccc([N+](=O)[O-])cc4)c4ccc2[nH]4)C=C3)cc1 [TpNO2Cor, 5,10,15-Tris(4-nitrophenyl)corrole]
CC50 (RK13 cells): 4360 nM | Inhibition of MYXV infection rate (in words) (MYXV [1]): better in vitro anti-MYXV effect than FNO2Cor | pIC50 (MYXV [1]; [3]): 6.37 | pIC50 (MYXV [1]; [4]): 6.70 | Area in cm^2 of lysis plaques (MYXV [2]; concentration 0.37 μM): 9 cm^2 | Number of lysis plaques (MYXV [2]; concentration 0.37 μM): 4 | Area in cm^2 of lysis plaques (MYXV [2]; concentration 0.75 μM): 3.4 cm^2 | Number of lysis plaques (MYXV [2]; concentration 0.75 μM): 6.7 | Number of lysis plaques (MYXV [2]; concentration 1.5 μM): 2.7 | Number of lysis plaques (MYXV [2]; concentration 3.1 μM): 0

O=[N+]([O-])c1ccc(F)c(-c2c3nc(c4ccc([nH]4)c(-c4cc([N+](=O)[O-])ccc4F)c4ccc([nH]4)c(-c4cc([N+](=O)[O-])ccc4F)c4ccc2[nH]4)C=C3)c1 [FNO2Cor, 5,10,15-Tris(2-fluoro-5-nitrophenyl)corrole]
CC50 (RK13 cells): 3740 nM | pIC50 (MYXV [1]; [3]): 5.88 | pIC50 (MYXV [1]; [4]): 6.30 | Area in cm^2 of lysis plaques (MYXV [2]; concentration 0.37 μM): 8 cm^2 | Number of lysis plaques (MYXV [2]; concentration 0.37 μM): 5 | Area in cm^2 of lysis plaques (MYXV [2]; concentration 0.75 μM): 3.4 cm^2 | Number of lysis plaques (MYXV [2]; concentration 0.75 μM): 6 | Number of lysis plaques (MYXV [2]; concentration 1.5 μM): 1.3 | Number of lysis plaques (MYXV [2]; concentration 3.1 μM): 0

Fc1c(F)c(F)c(-c2c3nc(c4ccc([nH]4)c(-c4c(F)c(F)c(F)c(F)c4F)c4ccc([nH]4)c(-c4c(F)c(F)c(F)c(F)c4F)c4ccc2[nH]4)C=C3)c(F)c1F [TPFCor, 5,10,15-Tris(pentafluorophenyl)corrole]
CC50 (RK13 cells): 6680 nM | Inhibition of MYXV infection rate (in words) (MYXV [1]): better in vitro anti-MYXV effect than FNO2Cor | pIC50 (MYXV [1]; [3]): 6.57 | pIC50 (MYXV [1]; [4]): 6.92 | Area in cm^2 of lysis plaques (MYXV [2]; concentration 0.37 μM): 6 cm^2 | Number of lysis plaques (MYXV [2]; concentration 0.37 μM): 6.7 | Number of lysis plaques (MYXV [2]; concentration 0.75 μM): 6 | Number of lysis plaques (MYXV [2]; concentration 1.5 μM): 3.3 | Number of lysis plaques (MYXV [2]; concentration 3.1 μM): 4
